Source: ChEMBL document CHEMBL3232998, “Spiromastixones A-O, antibacterial chlorodepsidones from a deep-sea-derived Spiromastix sp. fungus” (J Nat Prod, 2014)
Converted amounts (≈) assume the structure as drawn.

How the values were obtained:
Staphylococcus aureus [1] = experiment: Antibacterial activity against Staphylococcus aureus ATCC 29213 after 18 hrs by broth microdilution method; format: functional; conditions: ATCC 29213, 18 h
Bacillus thuringiensis = experiment: Antibacterial activity against Bacillus thuringiensis SCSIO BT01 after 18 hrs by broth microdilution method; format: functional; conditions: SCSIO BT01, 18 h
Bacillus subtilis = experiment: Antibacterial activity against Bacillus subtilis SCSIO BS01 after 18 hrs by broth microdilution method; format: functional; conditions: SCSIO BS01, 18 h
Escherichia coli [2] = experiment: Antibacterial activity against Escherichia coli ATCC 25922 after 18 hrs by broth microdilution method; format: functional; conditions: ATCC 25922, 18 h
Staphylococcus aureus [3] = experiment: Antibacterial activity against methicillin-sensitive Staphylococcus aureus ATCC 29213 after 18 hrs by broth microdilution method; format: functional, organism-based; conditions: ATCC 29213, 18 h, read-out: IC50
Staphylococcus aureus [4] = experiment: Antibacterial activity against methicillin-resistant Staphylococcus aureus ATCC 33591 after 18 hrs by broth microdilution method; format: functional, organism-based; conditions: ATCC 33591, 18 h, read-out: IC50
Staphylococcus aureus [5] = experiment: Antibacterial activity against methicillin-sensitive Staphylococcus aureus 15 after 18 hrs by broth microdilution method; format: functional, organism-based; conditions: Staphylococcus aureus, 15, 18 h; read-out: IC50
Staphylococcus aureus [6] = experiment: Antibacterial activity against methicillin-sensitive Staphylococcus aureus 12-28 after 18 hrs by broth microdilution method; format: functional, organism-based; conditions: 12-28, 18 h
Staphylococcus aureus [7] = experiment: Antibacterial activity against methicillin-resistant Staphylococcus aureus 12-33 after 18 hrs by broth microdilution method; format: functional, organism-based; conditions: 12-33, 18 h, read-out: IC50
[8] = test system: Staphylococcus epidermidis; experiment: Antibacterial activity against methicillin-sensitive Staphylococcus epidermidis ATCC 12228 after 18 hrs by broth microdilution method; format: functional, organism-based; conditions: ATCC 12228, 18 h, read-out: IC50
[9] = test system: Staphylococcus epidermidis; experiment: Antibacterial activity against methicillin-sensitive Staphylococcus epidermidis 12-6 after 18 hrs by broth microdilution method; format: functional, organism-based; conditions: 12-6, 18 h
[10] = test system: Staphylococcus epidermidis; experiment: Antibacterial activity against methicillin-resistant Staphylococcus epidermidis 12-8 after 18 hrs by broth microdilution method; format: functional, organism-based; conditions: 12-8, 18 h, read-out: IC50
Enterococcus faecalis [11] = experiment: Antibacterial activity against vancomycin-sensitive Enterococcus faecalis ATCC 29212 after 18 hrs by broth microdilution method; format: functional, organism-based; conditions: ATCC 29212, 18 h, read-out: IC50
Enterococcus faecalis [12] = experiment: Antibacterial activity against vancomycin-resistant Enterococcus faecalis ATCC 51299 after 18 hrs by broth microdilution method; format: functional, organism-based; conditions: ATCC 51299, 18 h, read-out: IC50
Enterococcus faecalis [13] = experiment: Antibacterial activity against vancomycin-sensitive Enterococcus faecalis 12-5 after 18 hrs by broth microdilution method; format: functional, organism-based; conditions: 12-5, 18 h, read-out: IC50
Enterococcus faecalis [14] = experiment: Antibacterial activity against vancomycin-resistant Enterococcus faecalis 09-9 after 18 hrs by broth microdilution method; format: functional, organism-based; conditions: 09-9, 18 h, read-out: IC50
Enterococcus faecium [15] = experiment: Antibacterial activity against vancomycin-resistant Enterococcus faecium ATCC 700221 after 18 hrs by broth microdilution method; format: functional, organism-based; conditions: ATCC 700221, 18 h, read-out: IC50
Enterococcus faecium [16] = experiment: Antibacterial activity against vancomycin-resistant Enterococcus faecium 12-1 after 18 hrs by broth microdilution method; format: functional, organism-based; conditions: 12-1, 18 h, read-out: IC50
Enterococcus faecium [17] = experiment: Antibacterial activity against vancomycin-sensitive Enterococcus faecium 12-3 after 18 hrs by broth microdilution method; format: functional, organism-based; conditions: 12-3, 18 h, read-out: IC50
Escherichia coli [18] = experiment: Antibacterial activity against extended spectrum beta-lactamase-deficient Escherichia coli ATCC 25922 after 18 hrs by broth microdilution method; format: functional, organism-based; conditions: ATCC 25922, 18 h, read-out: IC50
Escherichia coli [19] = experiment: Antibacterial activity against extended spectrum beta-lactamase-deficient Escherichia coli 1515 after 18 hrs by broth microdilution method; format: functional, organism-based; conditions: Escherichia coli, 1515, 18 h
Escherichia coli [20] = experiment: Antibacterial activity against extended spectrum beta-lactamase-deficient Escherichia coli 12-14 after 18 hrs by broth microdilution method; format: functional, organism-based; conditions: 12-14, 18 h, read-out: IC50
Escherichia coli [21] = experiment: Antibacterial activity against extended spectrum beta-lactamase producing Escherichia coli 12-15 after 18 hrs by broth microdilution method; format: functional, organism-based; conditions: 12-15, 18 h, read-out: IC50
Klebsiella pneumoniae [22] = experiment: Antibacterial activity against extended spectrum beta-lactamase producing Klebsiella pneumoniae ATCC 700603 after 18 hrs by broth microdilution method; format: functional, organism-based; conditions: ATCC 700603, 18 h
Klebsiella pneumoniae [23] = experiment: Antibacterial activity against extended spectrum beta-lactamase-deficient Klebsiella pneumoniae 7 after 18 hrs by broth microdilution method; format: functional, organism-based; conditions: Klebsiella pneumoniae, 7, 18 h; read-out: IC50
Klebsiella pneumoniae [24] = experiment: Antibacterial activity against NDM-1 producing Klebsiella pneumoniae ATCC BAA-2146 after 18 hrs by broth microdilution method; format: functional, organism-based; conditions: ATCC BAA-2146, 18 h, read-out: IC50
Klebsiella pneumoniae [25] = experiment: Antibacterial activity against extended spectrum beta-lactamase-deficient Klebsiella pneumoniae 12-4 after 18 hrs by broth microdilution method; format: functional, organism-based; conditions: 12-4, 18 h
Klebsiella pneumoniae [26] = experiment: Antibacterial activity against extended spectrum beta-lactamase producing Klebsiella pneumoniae 12-8 after 18 hrs by broth microdilution method; format: functional, organism-based; conditions: 12-8, 18 h, read-out: IC50
Staphylococcus aureus [27] = experiment: Ratio of levofloxacin IC50 to compound IC50 for methicillin-resistant Staphylococcus aureus 12-33 after 18 hrs by broth microdilution method; format: functional

Compound: CCCc1c(Cl)c(O)c(Cl)c2c1Oc1c(Cl)c(O)c(Cl)c(CCC)c1C(=O)O2
- MIC (Staphylococcus aureus [1]): 4 µg/mL (≈ 8.58 µM)
- MIC (Bacillus thuringiensis): 2 µg/mL (≈ 4.29 µM)
- MIC (Bacillus subtilis): 2 µg/mL (≈ 4.29 µM)
- MIC (Escherichia coli [2]): > 128 µg/mL
- MIC (Staphylococcus aureus [3]): 16 µM (≈ 7.46 µg/mL)
- MIC (Staphylococcus aureus [4]): 16 µM (≈ 7.46 µg/mL)
- MIC (Staphylococcus aureus [5]): 16 µM (≈ 7.46 µg/mL)
- IC50 (Staphylococcus aureus [6]): 16000 nM
- MIC (Staphylococcus aureus [7]): 32 µM (≈ 14.9 µg/mL)
- MIC [8]: 4 µM (≈ 1.86 µg/mL)
- IC50 [9]: 4000 nM
- MIC [10]: 8 µM (≈ 3.73 µg/mL)
- MIC (Enterococcus faecalis [11]): 64 µM (≈ 29.8 µg/mL)
- MIC (Enterococcus faecalis [12]): 64 µM (≈ 29.8 µg/mL)
- MIC (Enterococcus faecalis [13]): 64 µM (≈ 29.8 µg/mL)
- MIC (Enterococcus faecalis [14]): 64 µM (≈ 29.8 µg/mL)
- MIC (Enterococcus faecium [15]): 64 µM (≈ 29.8 µg/mL)
- MIC (Enterococcus faecium [16]): 64 µM (≈ 29.8 µg/mL)
- MIC (Enterococcus faecium [17]): 64 µM (≈ 29.8 µg/mL)
- MIC (Escherichia coli [18]): > 256 µM
- IC50 (Escherichia coli [19]): > 256000 nM
- MIC (Escherichia coli [20]): > 256 µM
- MIC (Escherichia coli [21]): > 256 µM
- IC50 (Klebsiella pneumoniae [22]): > 256000 nM
- MIC (Klebsiella pneumoniae [23]): > 256 µM
- MIC (Klebsiella pneumoniae [24]): > 256 µM
- IC50 (Klebsiella pneumoniae [25]): > 256000 nM
- MIC (Klebsiella pneumoniae [26]): > 256 µM
- Ratio IC50 (Staphylococcus aureus [27]): 2

Compound: CCCc1c(Cl)c(OC)cc2c1OC(=O)c1c(CCC)c(Cl)c(O)c(Cl)c1O2
- MIC (Staphylococcus aureus [1]): 0.5 µg/mL (≈ 1.12 µM)
- MIC (Bacillus thuringiensis): 0.5 µg/mL (≈ 1.12 µM)
- MIC (Bacillus subtilis): 0.5 µg/mL (≈ 1.12 µM)
- MIC (Escherichia coli [2]): > 128 µg/mL

Compound: CCCc1c(Cl)c(OC)c(Cl)c2c1OC(=O)c1c(CCC)c(Cl)c(O)c(Cl)c1O2
- MIC (Staphylococcus aureus [1]): 0.25 µg/mL (≈ 0.521 µM)
- MIC (Bacillus thuringiensis): 0.5 µg/mL (≈ 1.04 µM)
- MIC (Bacillus subtilis): 0.25 µg/mL (≈ 0.521 µM)
- MIC (Escherichia coli [2]): > 128 µg/mL

Compound: CCCc1cc(O)cc2c1OC(=O)c1c(CCC)c(Cl)c(O)c(Cl)c1O2
- MIC (Staphylococcus aureus [1]): 4 µg/mL (≈ 10.1 µM)
- MIC (Bacillus thuringiensis): 2 µg/mL (≈ 5.03 µM)
- MIC (Bacillus subtilis): 2 µg/mL (≈ 5.03 µM)
- MIC (Escherichia coli [2]): > 128 µg/mL

Compound: CCCc1c(Cl)c(O)cc2c1OC(=O)c1c(CCC)c(Cl)c(O)c(Cl)c1O2
- MIC (Staphylococcus aureus [1]): 1 µg/mL (≈ 2.32 µM)
- MIC (Bacillus thuringiensis): 1 µg/mL (≈ 2.32 µM)
- MIC (Bacillus subtilis): 0.5 µg/mL (≈ 1.16 µM)
- MIC (Escherichia coli [2]): > 128 µg/mL

Compound: CCCc1c(Cl)c(O)c(Cl)c2c1OC(=O)c1c(CCC)c(Cl)c(O)c(Cl)c1O2
- MIC (Staphylococcus aureus [1]): 4 µg/mL (≈ 8.58 µM)
- MIC (Bacillus thuringiensis): 2 µg/mL (≈ 4.29 µM)
- MIC (Bacillus subtilis): 2 µg/mL (≈ 4.29 µM)
- MIC (Escherichia coli [2]): > 128 µg/mL

Compound: C[C@H]1COc2c(N3CCN(C)CC3)c(F)cc3c(=O)c(C(=O)O)cn1c23 [LEVOFLOXACIN]
- MIC (Staphylococcus aureus [3]): 0.25 µM (≈ 0.0903 µg/mL)
- MIC (Staphylococcus aureus [4]): 0.25 µM (≈ 0.0903 µg/mL)
- MIC (Staphylococcus aureus [5]): 0.125 µM (≈ 0.0452 µg/mL)
- IC50 (Staphylococcus aureus [6]): 250 nM
- MIC (Staphylococcus aureus [7]): 64 µM (≈ 23.1 µg/mL)
- MIC [8]: 0.25 µM (≈ 0.0903 µg/mL)
- IC50 [9]: 250 nM
- MIC [10]: 4 µM (≈ 1.45 µg/mL)
- MIC (Enterococcus faecalis [11]): 1 µM (≈ 0.361 µg/mL)
- MIC (Enterococcus faecalis [12]): 1 µM (≈ 0.361 µg/mL)
- MIC (Enterococcus faecalis [13]): 1 µM (≈ 0.361 µg/mL)
- MIC (Enterococcus faecalis [14]): > 128 µM
- MIC (Enterococcus faecium [15]): 64 µM (≈ 23.1 µg/mL)
- MIC (Enterococcus faecium [16]): 64 µM (≈ 23.1 µg/mL)
- MIC (Enterococcus faecium [17]): 64 µM (≈ 23.1 µg/mL)
- MIC (Escherichia coli [18]): ≤ 0.03 µM
- IC50 (Escherichia coli [19]): 125 nM
- MIC (Escherichia coli [20]): 1 µM (≈ 0.361 µg/mL)
- MIC (Escherichia coli [21]): 32 µM (≈ 11.6 µg/mL)
- IC50 (Klebsiella pneumoniae [22]): 1000 nM
- MIC (Klebsiella pneumoniae [23]): 0.25 µM (≈ 0.0903 µg/mL)
- MIC (Klebsiella pneumoniae [24]): > 128 µM
- IC50 (Klebsiella pneumoniae [25]): 125 nM
- MIC (Klebsiella pneumoniae [26]): 16 µM (≈ 5.78 µg/mL)

Compound: CC1(C)S[C@@H]2[C@H](NC(=O)Cc3ccccc3)C(=O)N2[C@H]1C(=O)O [PENICILLIN G]
- MIC (Staphylococcus aureus [1]): 0.125 µg/mL (≈ 0.374 µM)
- MIC (Bacillus thuringiensis): 128 µg/mL (≈ 383 µM)
- MIC (Bacillus subtilis): 0.125 µg/mL (≈ 0.374 µM)
- MIC (Escherichia coli [2]): > 128 µg/mL
